Measured values as given in US11020408B2, “Polymer composed of repeat units having a biologically active molecule attached thereto via a pH-sensitive bond” (SPIREA LIMITED, priority 2014, dated 2021).

Tested on: Mycobacterium bovis BCG-lux grown in human monocyte-derived macrophages
Format: cell-based

| Compound | effect on BCG-lux viability (in words) | antibiotic efficacy (in words) | antimycobacterial activity (in words) | increase of BCG-lux bioluminescence compared to untreated cells [%] | reduction of BCG-lux bioluminescence [%] | viability lower than control cells [%] |
| --- | --- | --- | --- | --- | --- | --- |
| CC[C@@H](CO)NCCN[C@@H](CC)CO [EMB, ethambutol] | did not reduce BCG-lux viability | – | – | – | – | – |
| NNC(=O)c1ccncc1 [INH, isoniazid] | – | equivalent to the antibiotic efficacy of E80 nanoparticles | no antimycobacterial activity | 32 | 53 | 15 |
